Experiments:
Cdk2(C177A) = molecular target: T1, Cdk2(C177A) (Homo sapiens, UniProt P24941, C177A); experiment: Intact protein mass spectrometry of labelling, Cdk2(C177A); type: binding
T1 construct: made in house; host or cells: E. coli Tuner(DE3)
Experimental: (§1) Hs!Cyclin!A2!F!5’![…]!
(§2) Hs!Cyclin!A2!R!5’![…]!
(§3) Sc!CAK1!R!5’!GAATTCttatgggcttttctaattcttgcaag!
GSTBCdk2" and" GSTBcyclin" A2:! Harvested! cells! were! resuspended! in! 50! mM! HEPES! buffer! (pH7.5)! containing! 150! mM! NaCl,!
10!mM!MgCl2,!2!mM!dithiothreitol!(DTT),!0.5!mg!mLR1!lysozyme,!and!0.01%!Triton!XR100!at!4!˚C!and!incubated!for!30!minutes.!
After! sonication! and! centrifugation! (40! min,! 16000! g),! the! supernatant! was! incubated! for! 1! h! with! glutathioneRSepharose!
beads,! washed! with! lysis! buffer! and! the! desired! protein! eluted! with! 10! mM! GSH! (100! mM! Tris,! pH! 8).! After! incubation! the! deR
sired! protein! was! cleaved! from! the! GST! tag! with! PreScission! protease! (100:1)! at! 4 °C! for! 4! hours,! the! cleaved! GST! tag! was!
removed! with! glutathioneRSepharose! beads.! Cdk2! was! concentrated! and! then! loaded! onto! a! Superdex! 75! (16/60)! column,!
eluting! with! 100! mM! phosphate! buffer! containing! 50! mM! DTT.! Purified! Cdk2! was! concentrated! to! 10! mg! mLR1!and! stored! at!–
80! ˚C.! Cyclin! A2! was! purified! by! glutathioneRSepharose! affinity! as! described! above! with! the! following! amendments:! 100! mM!
MgCl2!was! added! after! GST! cleavage! to! minimise! protein! aggregation! and! gel! filtration! was! performed! with! 50! mM! […]
(§4) labelling! reached! completion! (as! monitored! by! fluorescence! quench! assay! and/or! intact! protein! mass! spectrometry).! […]

Cdk2(WT) = Cdk2(WT) (Homo sapiens, UniProt P24941); experiment: Intact protein mass spectrometry of labelling, Cdk2(WT); type: binding; parameters: made in house; host or cells: E. coli Tuner(DE3)
Experimental: Supplementary, Figure, S6!|!Acrylamide, 1,selectivity, profile.!Exponential! regressions! from!kinetic! analysis! of! acrylamide!1!
(0.5!mM)!in!reaction!with!various!thiols!(5!µM).!
Supplementary, Figure, S7!|!Cdk2(WT),is, mono%modified, by, acrylamide, 1.!(a)!Cdk2(WT)! was! phosphorylated! with! CAK1.!
pCdk2(WT)! (5! µM)! was! then! incubated! with! acrylamide!1!(0.5! mM)! in! 100! mM! phosphate! buffer!(pH! 8.0)! at! 4! ˚C! for! 18! hours.!
IntactRprotein! mass! spectra! show! complete! phosphorylation! (ΔMW! =! 80! Da)! and! complete! acrylamide! labeling! (ΔMW! =!
288!Da).!(b)!Cdk2(WT)! (5! µM)! was! incubated! with! acrylamide!1!(0.5! mM)! in! 100! mM! phosphate! buffer! (pH! 8.0)!in! the!presR
ence! or! absence! of! GSH! (1! mM)! at! room! temperature.!The! degree! of! labelling! was! monitored! by!intactRprotein! mass!specR
trometry!after!6.25!and!24!h.!The!presence!of!1!mM!GSH!was!found!to!slow!the!rate!of!Cdk2!modification!by!a!factor!of!~2.! […]
as §1, §2, §3
GSTBCdk2" and" GSTBcyclin" A2:! Harvested! cells! were! resuspended! in! 50! mM! HEPES! buffer! (pH7.5)! containing! 150! mM! NaCl,! […]
as §4

C=CC(=O)N1CCN(C(=O)OC(C)(C)C)c2ccccc21 [Acrylamide 1]
modification of Cdk2(C177A) by intact protein mass spectrometry (Cdk2(C177A)): unaffected | factor by which 1 mM GSH slows the rate of Cdk2 modification (Cdk2(WT); Cdk2(WT) 5 µM, compound 0.5 mM, pH 8.0, room temperature, monitored after 6.25 and 24 h): ~ 2 | modification of Cdk2(WT) by intact protein mass spectrometry (Cdk2(WT); even in the presence of millimolar glutathione): mono‐modifies

Reference: article PMC5947712, “High‐Throughput Kinetic Analysis for Target‐Directed Covalent Ligand Discovery” (Angewandte Chemie (International Ed. in English), 2018)
